{
  "source": "DBAASP",
  "experiment_in_all_cases": "≥ marks a high value that may be exact or a test limit, other limits are often not marked, values filed in µg/mL are converted to µM",
  "key": {"[1]": {"test_system": "Candida albicans ATCC 20032"}, "[2]": {"test_system": "Staphylococcus aureus ATCC 25923"}, "Escherichia coli ML-35p": {"test_system": "Escherichia coli ML-35p"}, "[3]": {"test_system": "Listeria monocytogenes EGD"}, "Staphylococcus capitis 1": {"test_system": "Staphylococcus capitis 1"}, "Bacillus megaterium Bm11": {"test_system": "Bacillus megaterium Bm11"}, "[4]": {"test_system": "Escherichia coli ATCC 25922"}, "[5]": {"test_system": "Candida albicans ATCC 10231"}, "[6]": {"test_system": "Yersinia pseudotuberculosis YPIII"}, "[7]": {"test_system": "Staphylococcus aureus Cowan 1"}, "[8]": {"test_system": "Pseudomonas aeruginosa PAO1"}, "Escherichia coli MG1655": {"test_system": "Escherichia coli MG1655"}, "Candida albicans": {"test_system": "Candida albicans"}, "Staphylococcus aureus": {"test_system": "Staphylococcus aureus"}, "[9]": {"test_system": "Staphylococcus haemolyticus"}, "[10]": {"test_system": "Bacillus subtilis ATCC 6633"}, "[11]": {"test_system": "Klebsiella pneumoniae ATCC BAA-1705"}, "Escherichia coli W3110": {"test_system": "Escherichia coli W3110"}, "[12]": {"test_system": "Staphylococcus epidermidis C621"}, "[13]": {"test_system": "Enterococcus faecalis ATCC 29212"}, "Escherichia coli UB1005": {"test_system": "Escherichia coli UB1005"}, "[14]": {"test_system": "Pseudomonas aeruginosa ATCC 27853"}},
  "note": "Several values for one entry are separate records, joined by “and”; a condition that tells them apart may be missing. Equal entries are not always repeated.",
  "data": [
    {"smiles": "CC[C@H](C)[C@@H]1NC(=O)[C@H](CO)NC(=O)[C@H](CCCCN)NC(=O)[C@H]([C@@H](C)O)NC(=O)[C@H](Cc2c[nH]c3ccccc23)NC(=O)[C@@H](NC(=O)CNC(=O)[C@H](CCCN=C(N)N)NC(=O)[C@H](CC(C)C)NC(=O)[C@H](C)NC(=O)[C@H](C)N)CSSC[C@@H](C(=O)N[C@@H](CO)C(=O)NCC(=O)N[C@@H](CCCCN)C(=O)N[C@@H](CCCN=C(N)N)C(=O)O)NC(=O)[C@@H]2CCCN2C(=O)[C@H](CCCCN)NC(=O)[C@@H]2CCCN2C(=O)[C@@H]2CCCN2C1=O", "note": "[AALRGCWTKSIPPKPCSGKR]", "values": [
      {"measurement": "MIC", "setting": "[1]", "result": 23.1, "unit": "µM"},
      {"measurement": "MIC", "setting": "[2]", "result": 5.8, "unit": "µM"}
    ]},
    {"smiles": "CC[C@H](C)[C@@H]1NC(=O)[C@H](CCCN=C(N)N)NC(=O)[C@@H]2CSSC[C@@H]3NC(=O)[C@H]([C@@H](C)O)NC(=O)CNC(=O)[C@H](Cc4ccc(O)cc4)NC(=O)[C@H](CCCN=C(N)N)NC(=O)[C@H](CCCN=C(N)N)NC(=O)[C@H](CCC(=O)O)NC(=O)CNC(=O)[C@H](C)NC(=O)[C@H](Cc4ccccc4)NC(=O)[C@H](CSSC[C@H](NC(=O)[C@H](Cc4ccccc4)NC(=O)[C@H](C)NC(=O)[C@H](Cc4c[nH]c5ccccc45)NC(=O)[C@H](C(C)C)NC(=O)[C@H](CCCN=C(N)N)NC(=O)CNC(=O)[C@H](CC(C)C)NC(=O)[C@H](Cc4ccc(O)cc4)NC(=O)[C@H](Cc4ccccc4)NC3=O)C(=O)N[C@H](C(=O)O)CSSC[C@H](NC(=O)[C@H](C)N)C(=O)N[C@@H](Cc3ccc(O)cc3)C(=O)N2)NC(=O)[C@H](C)NC(=O)[C@@H]2CCCN2C1=O", "note": "[ACYCRIPACFAGERRYGTCFYLGRVWAFCC]", "values": [
      {"measurement": "MIC", "setting": "Escherichia coli ML-35p", "result": "2.4 µM and 7.1 µM"},
      {"measurement": "MIC", "setting": "[3]", "result": "2.2 µM and 1.8 µM"}
    ]},
    {"smiles": "CC[C@H](C)[C@H](NC(=O)CNC(=O)[C@H](CO)NC(=O)[C@H](CC(C)C)NC(=O)[C@@H](NC(=O)[C@H](CCCN=C(N)N)NC(=O)[C@H](C)NC(=O)[C@@H](NC(=O)[C@H](CC(C)C)NC(=O)[C@@H]1CCCN1C(=O)[C@H](CC(C)C)NC(=O)[C@@H](N)Cc1ccccc1)[C@@H](C)CC)C(C)C)C(=O)N[C@@H](CC(C)C)C(N)=O", "note": "[FLPLIARVLSGIL]", "values": [
      {"measurement": "MIC", "setting": "Staphylococcus capitis 1", "result": 5, "unit": "µM"},
      {"measurement": "MIC", "setting": "Bacillus megaterium Bm11", "result": 2.5, "unit": "µM"},
      {"measurement": "MIC", "setting": "[4]", "result": "> 40", "unit": "µM"},
      {"measurement": "MIC", "setting": "[5]", "result": 2.5, "unit": "µM"},
      {"measurement": "MIC", "setting": "[6]", "result": 20, "unit": "µM"},
      {"measurement": "MIC", "setting": "[7]", "result": 2.5, "unit": "µM"}
    ]},
    {"smiles": "CSCC[C@H](NC(=O)[C@@H](NC(=O)[C@H](CCCCN)NC(=O)[C@H](C)NC(=O)[C@H](CC(C)C)NC(=O)CN)C(C)C)C(=O)N[C@@H](CCCN=C(N)N)C(=O)N[C@@H](CCCCN)C(=O)N[C@H](C(=O)N[C@@H](CC(C)C)C(=O)NCC(=O)N[C@@H](Cc1ccc(O)cc1)C(=O)N[C@@H](CC(C)C)C(=O)N[C@@H](CCCN=C(N)N)C(=O)N[C@@H](CC(N)=O)C(=O)N[C@H](C(=O)N[C@@H](Cc1ccc(O)cc1)C(=O)N[C@@H](CCCCN)C(N)=O)C(C)C)C(C)C", "note": "[GLAKVMRKVLGYLRNVYK]", "values": [
      {"measurement": "MIC", "setting": "[8]", "result": 8, "unit": "µM"},
      {"measurement": "MIC", "setting": "Escherichia coli MG1655", "result": 2.83, "unit": "µM"},
      {"measurement": "MIC", "setting": "Candida albicans", "result": 22.6, "unit": "µM"},
      {"measurement": "MIC", "setting": "[2]", "result": 5.66, "unit": "µM"}
    ]},
    {"smiles": "CC(C)C[C@H](NC(=O)CNC(=O)CNC(=O)[C@H](C)NC(=O)[C@@H](NC(=O)[C@H](CC(N)=O)NC(=O)[C@H](CC(C)C)NC(=O)[C@H](CC(C)C)NC(=O)[C@H](CC(=O)O)NC(=O)[C@@H](NC(=O)[C@@H](NC(=O)[C@@H](NC(=O)CN)C(C)C)C(C)C)[C@@H](C)O)[C@@H](C)O)C(=O)N[C@@H](CC(C)C)C(=O)NCC(=O)N[C@@H](CC(N)=O)C(=O)N[C@@H](CC(C)C)C(=O)N[C@H](C(=O)NCC(=O)N[C@@H](CO)C(=O)N[C@@H](CC(C)C)C(=O)N[C@@H](CO)C(=O)NCC(N)=O)C(C)C", "note": "[GVVTDLLNTAGGLLGNLVGSLSG]", "values": [
      {"measurement": "MIC", "setting": "Staphylococcus aureus", "result": 300, "unit": "µM"},
      {"measurement": "MIC", "setting": "[9]", "result": "≥ 400", "unit": "µM"}
    ]},
    {"smiles": "CC[C@H](C)[C@H](N)C(=O)N[C@@H](CC(C)C)C(=O)NCC(=O)N1CCC[C@H]1C(=O)N[C@H](C(=O)N[C@H](C(=O)N[C@@H](CO)C(=O)N[C@H](C(=O)N[C@H](C(=O)NCC(=O)N[C@@H](CC(N)=O)C(=O)N[C@@H](C)C(=O)N[C@@H](CC(C)C)C(=O)NCC(=O)NCC(=O)N[C@@H](CC(C)C)C(=O)N[C@@H](CC(C)C)C(=O)N[C@@H](CCCCN)C(=O)N[C@@H](CC(N)=O)C(=O)N[C@@H](CC(C)C)C(N)=O)[C@@H](C)CC)[C@@H](C)O)[C@@H](C)CC)C(C)C", "note": "[ILGPVISTIGNALGGLLKNL]", "values": [
      {"measurement": "MIC", "setting": "[10]", "result": "≥ 50.9", "unit": "µM"},
      {"measurement": "MIC", "setting": "[1]", "result": "≥ 50.9", "unit": "µM"},
      {"measurement": "MIC", "setting": "[4]", "result": "> 50.9", "unit": "µM"},
      {"measurement": "MIC", "setting": "[2]", "result": "> 50.9", "unit": "µM"}
    ]},
    {"smiles": "CC[C@H](C)[C@H](N)C(=O)N[C@@H](CC(C)C)C(=O)NCC(=O)N1CCC[C@H]1C(=O)N[C@H](C(=O)N[C@@H](CC(C)C)C(=O)NCC(=O)N[C@@H](CC(C)C)C(=O)N[C@H](C(=O)N[C@@H](CO)C(=O)N[C@@H](CC(N)=O)C(=O)N[C@@H](C)C(=O)N[C@@H](CC(C)C)C(=O)NCC(=O)NCC(=O)N[C@@H](CC(C)C)C(=O)N[C@@H](CC(C)C)C(N)=O)C(C)C)C(C)C", "note": "[ILGPVLGLVSNALGGLL]", "values": [
      {"measurement": "MIC", "setting": "[10]", "result": "≥ 62.3", "unit": "µM"},
      {"measurement": "MIC", "setting": "[1]", "result": "≥ 62.3", "unit": "µM"},
      {"measurement": "MIC", "setting": "[4]", "result": "> 62.3", "unit": "µM"},
      {"measurement": "MIC", "setting": "[2]", "result": "> 62.3", "unit": "µM"}
    ]},
    {"smiles": "CC[C@H](C)[C@H](N)C(=O)N[C@@H](Cc1c[nH]c2ccccc12)C(=O)N[C@@H](Cc1c[nH]c2ccccc12)C(=O)N[C@@H](C)C(=O)N[C@@H](CCCCN)C(=O)N[C@@H](CC(C)C)C(=O)NCC(=O)N[C@@H](CC(C)C)C(=O)N[C@@H](CCCCN)C(=O)N[C@@H](CC(C)C)C(=O)N[C@@H](CC(C)C)C(=O)N[C@@H](CCCN=C(N)N)C(=O)N[C@@H](Cc1ccc(O)cc1)C(=O)N[C@@H](CCCN=C(N)N)C(=O)N[C@@H](CCCN=C(N)N)C(=O)N[C@@H](Cc1c[nH]c2ccccc12)C(=O)N[C@@H](Cc1ccc(O)cc1)C(=O)O", "note": "[IWWAKLGLKLLRYRRWY]", "values": [
      {"measurement": "MIC", "setting": "[11]", "result": 4, "unit": "µM"},
      {"measurement": "MIC", "setting": "Escherichia coli W3110", "result": 2, "unit": "µM"}
    ]},
    {"smiles": "CC[C@H](C)[C@H](N)C(=O)N[C@@H](Cc1c[nH]c2ccccc12)C(=O)N[C@@H](Cc1c[nH]c2ccccc12)C(=O)N[C@@H](C)C(=O)N[C@@H](CCCCN)C(=O)N[C@@H](Cc1c[nH]c2ccccc12)C(=O)NCC(=O)N[C@@H](CC(C)C)C(=O)N[C@@H](CCCCN)C(=O)N[C@@H](CC(C)C)C(=O)N[C@@H](CC(C)C)C(=O)N[C@@H](CCCN=C(N)N)C(=O)N[C@@H](Cc1ccc(O)cc1)C(=O)N[C@@H](CCCN=C(N)N)C(=O)N[C@@H](CCCN=C(N)N)C(=O)N[C@H](C(=O)N[C@@H](Cc1c[nH]c2ccccc12)C(=O)O)[C@@H](C)CC", "note": "[IWWAKWGLKLLRYRRIW]", "values": [
      {"measurement": "MIC", "setting": "[11]", "result": "≥ 32", "unit": "µM"},
      {"measurement": "MIC", "setting": "Escherichia coli W3110", "result": 4, "unit": "µM"}
    ]},
    {"smiles": "C[C@H](NC(=O)[C@H](C)NC(=O)[C@H](C)NC(=O)[C@H](CCCCN)NC(=O)[C@@H](N)CCCCN)C(=O)N[C@@H](C)C(=O)N[C@@H](Cc1ccccc1)C(=O)N[C@@H](C)C(=O)N[C@@H](C)C(=O)N[C@@H](Cc1ccccc1)C(=O)N[C@@H](C)C(=O)N[C@@H](C)C(=O)N[C@@H](Cc1c[nH]c2ccccc12)C(=O)N[C@@H](Cc1ccccc1)C(=O)N[C@@H](C)C(=O)N[C@@H](C)C(=O)N[C@@H](Cc1ccccc1)C(=O)N[C@@H](C)C(=O)N[C@@H](C)C(=O)N[C@@H](C)C(=O)N[C@@H](C)C(=O)N[C@@H](CCCCN)C(=O)N[C@@H](CCCCN)C(=O)N[C@@H](CCCCN)C(=O)N[C@@H](CCCCN)C(N)=O", "note": "[KKAAAAFAAFAAWFAAFAAAAKKKK]", "values": [
      {"measurement": "MIC", "setting": "[10]", "result": 2, "unit": "µM"},
      {"measurement": "MIC", "setting": "[12]", "result": 4, "unit": "µM"},
      {"measurement": "MIC", "setting": "[13]", "result": "> 32", "unit": "µM"},
      {"measurement": "MIC", "setting": "Escherichia coli UB1005", "result": 8, "unit": "µM"},
      {"measurement": "MIC", "setting": "[4]", "result": 16, "unit": "µM"},
      {"measurement": "MIC", "setting": "[2]", "result": 32, "unit": "µM"},
      {"measurement": "MIC", "setting": "[14]", "result": 8, "unit": "µM"}
    ]}
  ]
}
